Measurements taken from PubChem BioAssay AID1340 (NMMLSC, 2008).

The compounds below were run against Ras-related C3 botulinum toxin substrate 1 (Homo sapiens) (UniProt P63000) (assay: inhibition of wildtype Rac1 nucleotide loading – biochemical, multiplex bead flow cytometry, dose response (AID 1340)). Conditions: GST-Rac1 beads, Bodipy-FL-GTP binding.

| SMILES | EC50 |
| --- | --- |
| COc1cc(/C=N/Nc2nnc3c(n2)[nH]c2ccccc23)ccc1O | 0.634 µM |
| COc1ccc(C(=O)/C=C/Nc2ccc(S(=O)(=O)Nc3nc(C)cc(C)n3)cc2)cc1OC | 3.12 µM |
| NC(=S)N=Nc1c(O)[nH]c2ccc(F)cc12 | 3.46 µM |
